How the values were obtained:
Type in all cases: in vivo
corn (Zea mays) [1] = experiment: Test G Pre-Emergence Protocol; details: Zea mays, pre-emergence, 312 h, evaluated after 13 days; for plant injury at 15.625 g/ha: 15.625 g ai/ha; for plant injury at 15.625 g/ha / plant injury at 250 g/ha: read-out: Corn damage rating (100=total damage to plant; 0=no damage to plant); for plant injury at 62.5 g/ha: 62.5 g ai/ha, 100=total damage to plant, 0=no damage to plant, read-out: Corn damage rating; for plant injury at 250 g/ha: 250 g ai/ha
Summary of the method: (§1)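 Test compound in 0.5% Tween 20 acetone/water (50:50) was applied at three rates (15.625, 62.5, 250 g/ha) to soil sown one day earlier. After 13 days plants were scored for injury, where 0 means unaffected and 100 means completely damaged.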

[2] = test system: velvetleaf (Abutilon theophrasti); experiment: Test G Pre-Emergence Protocol; details: Abutilon theophrasti, pre-emergence, 312 h, evaluated after 13 days; for pest or weed control at 15.625 g/ha: 15.625 g ai/ha; for pest or weed control at 15.625 g/ha / pest or weed control at 250 g/ha: read-out: Velvetleaf damage rating (100=total damage to plant; 0=no damage to plant); for pest or weed control at 62.5 g/ha: 62.5 g ai/ha, 100=total damage to plant, 0=no damage to plant, read-out: Velvetleaf damage rating; for pest or weed control at 250 g/ha: 250 g ai/ha
Summary of the method: as §1

[3] = test system: barnyardgrass (Echinochloa crus-galli); experiment: Test G Pre-Emergence Protocol; details: Echinochloa crus-galli, pre-emergence, 312 h, evaluated after 13 days; for pest or weed control at 15.625 g/ha: 15.625 g ai/ha; for pest or weed control at 15.625 g/ha / pest or weed control at 250 g/ha: read-out: Barnyardgrass damage rating (100=total damage to plant; 0=no damage to plant); for pest or weed control at 62.5 g/ha: 62.5 g ai/ha, 100=total damage to plant, 0=no damage to plant, read-out: Barnyardgrass damage rating; for pest or weed control at 250 g/ha: 250 g ai/ha
Summary of the method: as §1

[4] = test system: ivy-leaved morning glory (Ipomoea hederacea); experiment: Test G Pre-Emergence Protocol; details: Ipomoea, pre-emergence, 312 h, evaluated after 13 days; for pest or weed control at 15.625 g/ha: 15.625 g ai/ha; for pest or weed control at 15.625 g/ha / pest or weed control at 250 g/ha: read-out: Morningglory, Ivy-leaved damage rating (100=total damage to plant; 0=no damage to plant); for pest or weed control at 62.5 g/ha: 62.5 g ai/ha, 100=total damage to plant, 0=no damage to plant, read-out: Morningglory, Ivy-leaved damage rating; for pest or weed control at 250 g/ha: 250 g ai/ha
Summary of the method: as §1

[5] = test system: giant foxtail (Setaria faberi); experiment: Test G Pre-Emergence Protocol; details: Setaria faberi, pre-emergence, 312 h, evaluated after 13 days; for pest or weed control at 15.625 g/ha: 15.625 g ai/ha; for pest or weed control at 15.625 g/ha / pest or weed control at 250 g/ha: read-out: Foxtail, Giant damage rating (100=total damage to plant; 0=no damage to plant); for pest or weed control at 62.5 g/ha: 62.5 g ai/ha, 100=total damage to plant, 0=no damage to plant, read-out: Foxtail, Giant damage rating; for pest or weed control at 250 g/ha: 250 g ai/ha
Summary of the method: as §1

[6] = test system: redroot pigweed (Amaranthus retroflexus); experiment: Test G Pre-Emergence Protocol; details: Amaranthus retroflexus, pre-emergence, 312 h, evaluated after 13 days; for pest or weed control at 15.625 g/ha: 15.625 g ai/ha; for pest or weed control at 15.625 g/ha / pest or weed control at 250 g/ha: read-out: Pigweed, Redroot damage rating (100=total damage to plant; 0=no damage to plant); for pest or weed control at 62.5 g/ha: 62.5 g ai/ha, 100=total damage to plant, 0=no damage to plant, read-out: Pigweed, Redroot damage rating; for pest or weed control at 250 g/ha: 250 g ai/ha
Summary of the method: as §1

corn (Zea mays) [7] = experiment: Test G Post-Emergence Protocol; details: Zea mays, post-emergence, 312 h, read-out: Corn damage rating; for plant injury at 15.625 g/ha: 15.625 g ai/ha, evaluated after 13 days (100=total damage to plant; 0=no damage to plant); for plant injury at 62.5 g/ha: 62.5 g ai/ha; for plant injury at 62.5 g/ha / plant injury at 250 g/ha: evaluated after 13 days, 100=total damage to plant, 0=no damage to plant; for plant injury at 250 g/ha: 250 g ai/ha
Summary of the method: (§2)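 Damage was rated 13 days after treatment from 0 (none) to 100 (plant killed). Compound was applied as a spray at 15.625, 62.5 or 250 g/ha in 50:50 acetone/water containing 0.5% Tween 20, onto 8-day-old potted plants kept in a glasshouse (24/16 °C, 14 h light, 65% humidity).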

[8] = test system: velvetleaf (Abutilon theophrasti); experiment: Test G Post-Emergence Protocol; details: Abutilon theophrasti, post-emergence, 312 h, read-out: Velvetleaf damage rating; for pest or weed control at 15.625 g/ha: 15.625 g ai/ha, evaluated after 13 days (100=total damage to plant; 0=no damage to plant); for pest or weed control at 62.5 g/ha: 62.5 g ai/ha; for pest or weed control at 62.5 g/ha / pest or weed control at 250 g/ha: evaluated after 13 days, 100=total damage to plant, 0=no damage to plant; for pest or weed control at 250 g/ha: 250 g ai/ha
Summary of the method: as §2

[9] = test system: barnyardgrass (Echinochloa crus-galli); experiment: Test G Post-Emergence Protocol; details: Echinochloa crus-galli, post-emergence, 312 h, read-out: Barnyardgrass damage rating; for pest or weed control at 15.625 g/ha: 15.625 g ai/ha, evaluated after 13 days (100=total damage to plant; 0=no damage to plant); for pest or weed control at 62.5 g/ha: 62.5 g ai/ha; for pest or weed control at 62.5 g/ha / pest or weed control at 250 g/ha: evaluated after 13 days, 100=total damage to plant, 0=no damage to plant; for pest or weed control at 250 g/ha: 250 g ai/ha
Summary of the method: as §2

[10] = test system: ivy-leaved morning glory (Ipomoea hederacea); experiment: Test G Post-Emergence Protocol; details: Ipomoea, post-emergence, 312 h, read-out: Morningglory, Ivy-leaved damage rating; for pest or weed control at 15.625 g/ha: 15.625 g ai/ha, evaluated after 13 days (100=total damage to plant; 0=no damage to plant); for pest or weed control at 62.5 g/ha: 62.5 g ai/ha; for pest or weed control at 62.5 g/ha / pest or weed control at 250 g/ha: evaluated after 13 days, 100=total damage to plant, 0=no damage to plant; for pest or weed control at 250 g/ha: 250 g ai/ha
Summary of the method: as §2

[11] = test system: giant foxtail (Setaria faberi); experiment: Test G Post-Emergence Protocol; details: Setaria faberi, post-emergence, 312 h, read-out: Foxtail, Giant damage rating; for pest or weed control at 15.625 g/ha: 15.625 g ai/ha, evaluated after 13 days (100=total damage to plant; 0=no damage to plant); for pest or weed control at 62.5 g/ha: 62.5 g ai/ha; for pest or weed control at 62.5 g/ha / pest or weed control at 250 g/ha: evaluated after 13 days, 100=total damage to plant, 0=no damage to plant; for pest or weed control at 250 g/ha: 250 g ai/ha
Summary of the method: as §2

[12] = test system: redroot pigweed (Amaranthus retroflexus); experiment: Test G Post-Emergence Protocol; details: Amaranthus retroflexus, post-emergence, 312 h, read-out: Pigweed, Redroot damage rating; for pest or weed control at 15.625 g/ha: 15.625 g ai/ha, evaluated after 13 days (100=total damage to plant; 0=no damage to plant); for pest or weed control at 62.5 g/ha: 62.5 g ai/ha; for pest or weed control at 62.5 g/ha / pest or weed control at 250 g/ha: evaluated after 13 days, 100=total damage to plant, 0=no damage to plant; for pest or weed control at 250 g/ha: 250 g ai/ha
Summary of the method: as §2

Row | Compound | plant injury at 15.625 g/ha (corn (Zea mays) [1]) [%] | plant injury at 62.5 g/ha (corn (Zea mays) [1]) [%] | plant injury at 250 g/ha (corn (Zea mays) [1]) [%] | pest or weed control at 15.625 g/ha [2] [%] | pest or weed control at 62.5 g/ha [2] [%] | pest or weed control at 250 g/ha [2] [%] | pest or weed control at 15.625 g/ha [3] [%] | pest or weed control at 62.5 g/ha [3] [%] | pest or weed control at 250 g/ha [3] [%] | pest or weed control at 15.625 g/ha [4] [%] | pest or weed control at 62.5 g/ha [4] [%] | pest or weed control at 250 g/ha [4] [%] | pest or weed control at 15.625 g/ha [5] [%] | pest or weed control at 62.5 g/ha [5] [%] | pest or weed control at 250 g/ha [5] [%] | pest or weed control at 15.625 g/ha [6] [%] | pest or weed control at 62.5 g/ha [6] [%] | pest or weed control at 250 g/ha [6] [%] | plant injury at 15.625 g/ha (corn (Zea mays) [7]) [%] | plant injury at 62.5 g/ha (corn (Zea mays) [7]) [%] | other results
1 | CN1C[C@H](c2ccc(C(F)(F)F)cc2)[C@@H](C(=O)Nc2cccc3c2C(=O)OC3)C1=O (racemic) [Compound 1669] | 0 | 0 | 0 | 0 | 0 | 10 | 0 | 0 | 10 | 0 | 0 | 10 | 0 | 20 | 60 | 0 | 10 | 20 | 10 | 0 | plant injury at 250 g/ha (corn (Zea mays) [7]): 0%; pest or weed control at 15.625 g/ha [8]: 0%; pest or weed control at 62.5 g/ha [8]: 0%; pest or weed control at 250 g/ha [8]: 0%; pest or weed control at 15.625 g/ha [9]: 0%; pest or weed control at 62.5 g/ha [9]: 30%; pest or weed control at 250 g/ha [9]: 70%; pest or weed control at 15.625 g/ha [10]: 0%; pest or weed control at 62.5 g/ha [10]: 20%; pest or weed control at 250 g/ha [10]: 60%; pest or weed control at 15.625 g/ha [11]: 30%; pest or weed control at 62.5 g/ha [11]: 50%; pest or weed control at 250 g/ha [11]: 80%; pest or weed control at 15.625 g/ha [12]: 0%; pest or weed control at 62.5 g/ha [12]: 0%; pest or weed control at 250 g/ha [12]: 30%
2 | CN1C[C@H](c2ccc(C(F)(F)F)cc2)[C@@H](C(=O)Nc2ccc(C(F)(F)F)cn2)C1=O (racemic) [Compound 1672] | 0 | 0 | 0 | 0 | 0 | 0 | 0 | 0 | 0 | 0 | 0 | 0 | 0 | 0 | 0 | 0 | 0 | 0 | 0 | 0 | plant injury at 250 g/ha (corn (Zea mays) [7]): 10%; pest or weed control at 15.625 g/ha [8]: 0%; pest or weed control at 62.5 g/ha [8]: 0%; pest or weed control at 250 g/ha [8]: 0%; pest or weed control at 15.625 g/ha [9]: 0%; pest or weed control at 62.5 g/ha [9]: 0%; pest or weed control at 250 g/ha [9]: 0%; pest or weed control at 15.625 g/ha [10]: 0%; pest or weed control at 62.5 g/ha [10]: 0%; pest or weed control at 250 g/ha [10]: 0%; pest or weed control at 15.625 g/ha [11]: 0%; pest or weed control at 62.5 g/ha [11]: 0%; pest or weed control at 250 g/ha [11]: 0%; pest or weed control at 15.625 g/ha [12]: 0%; pest or weed control at 62.5 g/ha [12]: 30%; pest or weed control at 250 g/ha [12]: 40%

Reference: US12077503B2, “Substituted cyclic amides and their use as herbicides” (FMC CORPORATION, priority 2015, dated 2024)
